Source: US20060106099A1, “Novel inhibitors of ubiquitin isopeptidases” (priority 2002, published 2006)

Columns and labels:
[1] = tested on: ubiquitin isopeptidases; assay: Ubiquitin isopeptidase activity, Ub-PEST substrate, lysates of treated RKO and HCT 116 cells; assay type: cell-based, human; conditions: cells treated 6, 20 or 60 μM, 12 h
Procedure, shortened: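 RKO and HCT 116 cells (6×10^5) were treated with 0–60 μM compound for 12 h at 37 °C, then lysed in HEPES/EDTA/CHAPS/5 mM ATP, pH 7.5. Lysates at 0.3 mg/mL protein were incubated with 50 μg/mL Ub-PEST for 45 min at 25 °C. Released 8.5 kDa ubiquitin was quantified by anti-ubiquitin western blot densitometry relative to vehicle (100%).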

[2] = tested on: ubiquitin isopeptidases; assay: Ubiquitin isopeptidase activity, z-LRGG-AMC substrate, lysates of treated RKO and HCT 116 cells; assay type: cell-based, human; conditions: cells treated 6, 20 or 60 μM, 12 h
Procedure, shortened: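 RKO and HCT 116 cells were treated 12 h at 37° C with 6, 20 or 60 μM compound. Lysates at 0.5 mg/mL were pre-incubated with 30 μM MG115 (30 min, 4° C) to block proteasome, then given z-LRGG-AMC for 3 h at 37° C. Cleaved AMC was read fluorometrically.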

[3] = tested on: polyubiquitin conjugates in RKO-E6 cells; assay: Accumulation of polyubiquitin in RKO-E6 cells (immunoblot); assay type: cell-based, human; conditions: EC80 or 60 μM, 6-24 h
Procedure, shortened: (§1)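 RKO-E6 cells exposed at 37° C for 6, 12 or 24 h to compound concentrations giving 80% cell death at 48 h; for p53, RKO and RKO-E6 cells treated 6 h. Lysates (12.5 μg protein) immunoblotted for ubiquitin or p53 with ECL detection; p53 quantified by densitometry as RKO-E6/RKO ratio.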

[4] = tested on: p53; assay: p53 accumulation, ratio RKO-E6 cells/RKO cells (immunoblot, densitometry); assay type: cell-based, human; conditions: 6 h; etoposide 50 μM, MG115, NSC-302979, DBA 20 μM, others 60 μM
Procedure, shortened: as §1

[5] = tested on: RKO-E6 cells
Protocol: (§2) Cell viability was measured with MTT reagent as described in materials and methods.
(§3) Cell viability was detected by the MTT assay. Briefly, 1×10^5 cells were incubated per well of a sterile, 96-well assay plate with 0-60 μM of test compounds for 48 hours. MTT reagent was added to each well, final concentration of 0.5 mg/mL, and incubated for an additional 3 hours. The media was aspirated and remaining MTT reagent from each well and added 100 μL of HCl:isopropanol (1:24). The absorbance of each sample was measured at 405 nm.

[6] = tested on: RKO cells; assay: MTT cell viability assay, RKO cells; conditions: for cell death in RKO compared with RKO-E6 cells: 48 h, MTT, isogenic pair
[7] = tested on: RKO-E6 cells; assay: MTT cell viability assay, RKO-E6 cells; conditions: cell viability assay at 48 h, RKO-E6 cells
Protocol: as §2, §3

[8] = tested on: HCT 116 +/+ cells; assay: MTT cell viability assay, HCT 116 p53 +/+ cells; conditions: 48 h, MTT; for cell death in HCT 116 +/+ compared with HCT 116 −/− cells: isogenic pair
Protocol: as §2, §3

SMILES | inhibition of isopeptidase cleavage of Ub-PEST [1] | inhibition of z-LRGG-AMC hydrolysis by ubiquitin isopeptidases [2] | cellular accumulation of polyubiquitin conjugates [3] | ratio of p53 protein [RKO-E6 cells/RKO cells] [4] | EC50 [5] | cell death in RKO compared with RKO-E6 cells [6] | EC80, concentration that gave 80% cell death [7] | cell death in HCT 116 +/+ compared with HCT 116 −/− cells [8] | EC50 ([8]; read-out: Cytotoxic Potency (EC50) HCT +/+) | EC50 ([6]; read-out: EC50 in RKO cell lines, prostaglandins for comparison, comparison values in the text)
C=C1C(=O)C2=CC1CCC(=O)C1(C)CCC(OC(C)=O)C(C)(C)C1CC2O (stereo not drawn) [NSC-302979, shikoccin] | inhibited isopeptidase activity in a concentration dependent manner | inhibited ubiquitin isopeptidase activity | protein species with polyubiquitin conjugation accumulated in cells | approached unity | 1.4 ± 0.1 µM | caused cell death with equal potency and efficacy | 3.5 µM | caused cell death with equal potency | 2.7 ± 0.2 µM | –
CCCCC[C@H](O)C/C=C1/C(=O)C=C[C@@H]1C/C=C\CCCC(=O)O [Δ12-PGJ2, Δ12-prostaglandin J2] | inhibited isopeptidase activity in a concentration dependent manner | inhibited ubiquitin isopeptidase activity | protein species with polyubiquitin conjugation accumulated in cells | approached unity | 9.2 ± 1 µM | caused cell death with equal potency and efficacy | 13.2 µM | caused cell death with equal potency | – | 9 µM
